The nature of data set [1]: UV-Vis absorbance of motors in DMSO. Format: physicochemical. From the text: The UV-Vis spectrum of each motor was also acquired in DMSO (FIG. 37D) to ensure that the difference in absorbance at 400 nm was not the cause of larger or smaller responses.
Data set [2] relates to C2C12 myoblasts. Description: MM-induced calcium release in C2C12 cells (Fluo-4). Format: cell-based, mouse. The note with it: for Calcium release in C2C12 myoblasts: light for 500 ms, MM 1 8 μM. From the text:
FIGS. 36A-36D—MMs cause intracellular calcium waves in C2C12 myoblasts, a) MM 1 (unidirectional, ~3 MHz) structure showing rotor and stator. b) Rotation cycle of a MM. c) Confocal microscope images of C2C12 myoblasts with MM and labeled with Fluo-4. Stimulated areas are indicated by the red arrows immediately before stimulation and 10 s after stimulation. Scale bar=30 μm. d) Average normalized fluorescence intensity trace of stimulated C2C12 cells myoblasts treated with either DMSO (n=6) or MM 1 (n=7) and stimulated with 400-nm laser light for 500 ms. Laser stimulation is shown by the cyan line.
Fluo-4 is an intracellular calcium dye that fluoresces green when binding to calcium and is commonly used to observe intracellular calcium spikes in many cell types.
C2C12 cells will undergo differentiation from myoblasts to multinucleated myotubes when allowed to grow to confluence. This process occurs over the course of several days and can be sped up by replacing normal growth media with low serum differentiation media (Jang et al., 2022). The responsiveness of C2C12 cells to MM stimulation changes was tracked as they went through the process of growth and differentiation (FIG. 39). When plated on the first day, the cells are in low confluency, and show clear morphology of myoblasts. The cells reach around 100% confluency on day 4 (FIG. 39A), at which point they begin to differentiate to form the myotubes. They show lowest uptake of Fluo-4 and nearly no responses. After about 9 days of growth in regular growth media, myotubes begin to form, which have a fibrous, striated and multinucleated appearance, and the uptake of Fluo-4 could be observed again.

A further data set concerns HeLa cells. The data set can be described thus: MM-induced calcium responses in HeLa cells. Format: cell-based. The note with it: 400 nm, 250 ms, 3.2×10^2 W cm^−2. From the text: FIGS. 12A & 12B—ICW in HeLa cells after stimulation with MM 1 and light. (a) Confocal images of HeLa cells treated with MM 1 (blue) and Fluo-4 calcium tracking dye (green). The white circle in the bottom-left image depicts the area to which light stimulus was delivered. Scale bar is 50 μm and applies to all images. (b) Fluo-4 fluorescence traces of HeLa cells treated with MM 1 and stimulated with 250 ms pulse of 400 nm light delivered to a 5 μm diameter circular region of interest at 3.2×10^2 W cm^−2 stimulation power.
Cell Culture and Preparation of Cells for Microscopy: HEK293 cells were chosen as the principal model system due to their prevalence in electrophysiological interrogation. […] HEK293 cells, HeLa cells, and N2A cells were cultured in DMEM (10% FBS, 1% penicillin/streptomycin) and passaged at <90% confluence. […]
In Vitro Imaging and Stimulation: Cells were loaded in a Nikon A1-Rsi confocal system mounted on a widefield Ti-E fluorescence microscope. […] Laser stimulation for in vitro experiments was performed with a 400 nm photodiode laser (Coherent OBIS™ LX SF) operating in a fluorescence-recovery-after-photobleaching (FRAP) experiment mode, delivering up to 6.4×10^2 W cm^−2 at sample level. […] Fluo-4 fluorescence was collected for 30 s before and 2 min after stimulation. […]

Data set [3] relates to C2C12 myoblasts. The data set can be described thus: ROS generation (CellROX green) in C2C12 myoblasts. The note with it: MM 1 + light. The format is cell-based, mouse. The procedure: Additionally, to further confirm that the cellular calcium release is not the result of a photodynamic effect caused by reactive oxygen species (ROS) generation, ROS generation was measured from each MM using the ROS sensitive dye CellROX green. CellROX fluoresces when oxidized by ROS in living cells and can be used to measure general oxidative stress in cells due to ROS generation. […] To confirm that the ROS generated by MM 1 was not causing intracellular calcium release, cells were treated with a combination of thiourea (TU, 50 mM) and [COMPOUND LEFT OUT] (SA, 1.25 mM) to scavenge the ROS that were produced. […] If ROS generation by MM 1 was the cause of calcium release, then less calcium release would be expected with treatment of ROS scavengers.

Data set [4] relates to C2C12 myoblasts. The data set can be described thus: Localization of MM 1 in C2C12 cells. Format: cell-based, mouse. The note with it: 45 minutes of incubation.

Entries after “also recorded” stand apart in the source; their conditions may differ.

Two molecules from US20260373497A1, “MOLECULAR MACHINES STIMULATE INTERCELLULAR CALCIUM WAVES AND CAUSE MUSCLE CONTRACTION” (William Marsh Rice University, priority 2022, published 2026) can be followed below.

With `CC1Cc2cc(NCCN(C)C)c3ccccc3c2C1=C1c2ccccc2-c2ccccc21` (centres unmarked) [MM 3], the “Absorbance at 400 nm” value in data set [1] is listed as “much smaller absorbance”. For the same molecule, the “Calcium release at 3 times higher concentration” value in the data set on C2C12 myoblasts [2] (MM 3, 3×) is given as “no measurable increase in calcium release”. Further, in the data set on C2C12 myoblasts [2], the “Calcium release in C2C12 myoblasts” value is given as “did not induce any calcium release”.

For `CC1Cc2ccc3ccccc3c2C1=C1c2ccccc2Sc2cc(NCCN(C)C)ccc21` (centres unmarked) [MM 1], in data set [1], the “Absorbance at 400 nm” value is given as “nearly identical absorbances at 400 nm”. In addition, the “Calcium responses induced by MM 1 actuation” value in the data set on HeLa cells is on record as “also observed”. Further, in the data set on C2C12 myoblasts [3] (CellROX green), the ROS generation result is “generated more ROS than the DMSO negative control but less ROS than positive controls”. For the same molecule, in the data set on C2C12 myoblasts [3] (with thiourea-containing scavenger combination (1× and 0.2×)), the “ROS generation with scavenger combination” value is “decrease in ROS generation”. For the same molecule, the Cell permeation entry in the data set on C2C12 myoblasts [4] is on record as “permeate through the cell membrane after 45 minutes of incubation”. Besides, the “Calcium release with scavenger combination” value with C2C12 myoblasts [2] (MM 1 + light, with thiourea-containing scavenger combination (1× and 0.2×)) was “without changing the magnitude of calcium release”. The “Responsiveness to MM stimulation during differentiation” value is reported as “slight decrease of the responsivity from day 1 to day 3” in the data set with C2C12 myoblasts [2] (MM 1, day 1 to day 3); “lose their responsiveness to MM stimulation” with C2C12 myoblasts [2] (MM 1, day 4 to day 8); “increase in responsiveness to MM stimulation” in the data set on C2C12 myoblasts [2] (MM 1, day 9). Further, the “Calcium release at lower laser power” value in the data set on C2C12 myoblasts [2] (MM 1, lower laser powers) was “lower calcium release”. The “Calcium release in C2C12 myoblasts” value in the data set with C2C12 myoblasts [2] is given as “robust intracellular calcium release; also recorded: calcium transients several times larger in magnitude than MM 2”.
